Results on seven compounds are retold here after PubChem BioAssay (NCI).

Values after ≈ are worked out from the molar mass of the structure shown.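 A five-concentration, 48-hour dose response in 96-well plates underlies each endpoint, interpolated linearly between surrounding concentrations. Here, GI50 denotes the concentration required for 50% inhibition of growth. TGI denotes the concentration required for complete inhibition of growth.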 Where only a bound is given, the exact number is not on record here.

Some test systems named below: A549 NSCLC; CCRF-CEM leukemia; HOP-62 NSCLC; HT29 colon; K-562 leukemia; SK-MEL-5 melanoma; SNB-75 CNS; SW-620 colon; TK-10 renal; SR leukemia.
Common to all, as to experiment: DTP human tumour cell line panel, 48 h

Regarding `CCOC(=O)c1csc(NC(=O)C(C)N2CCCC2)n1` (stereo unspecified), the TGI in the assay with A549 NSCLC, in the assay with CCRF-CEM leukemia, in the assay on HOP-62 NSCLC, with HT29 colon, in the assay on K-562 leukemia and in the assay on SK-MEL-5 melanoma was above 100 µM throughout. Moreover, the total growth inhibition concentration (TGI) in the assay on SNB-75 CNS, in the assay with SW-620 colon and with TK-10 renal was above 100 µM throughout.
Turning to `O=C1NN(C2=NNC3(C(=O)N2)c2ccccc2-c2ccccc23)C(c2ccccc2)=N/C1=C/c1ccc(Cl)cc1`, the GI50 in the assay on A549 NSCLC is 60.2 µg/mL (≈ 111 µM); in the assay with CCRF-CEM leukemia, 52.6 µg/mL (≈ 96.5 µM); with HOP-62 NSCLC, 49.1 µg/mL (≈ 90 µM); in the assay with HT29 colon, 89.6 µg/mL (≈ 164 µM); with K-562 leukemia it was 50.4 µg/mL (≈ 92.6 µM); in the assay with SK-MEL-5 melanoma, 46.4 µg/mL (≈ 85.1 µM). For the same compound, the GI50 was 57.2 µg/mL (≈ 105 µM) in the assay with SNB-75 CNS, 62 µg/mL (≈ 114 µM) in the assay on SR leukemia, 52.8 µg/mL (≈ 96.9 µM) in the assay with SW-620 colon and 50.5 µg/mL (≈ 92.6 µM) with TK-10 renal. The TGI with A549 NSCLC, in the assay on CCRF-CEM leukemia, with HOP-62 NSCLC, with HT29 colon, with K-562 leukemia and with SK-MEL-5 melanoma was above 150 µg/mL each time. Moreover, the TGI in the assay on SNB-75 CNS is above 150 µg/mL; in the assay on SR leukemia, above 150 µg/mL; in the assay on SW-620 colon, above 150 µg/mL; in the assay on TK-10 renal it was 132 µg/mL.
Turning to `CC(=O)NNc1nc(C)c(C(=O)NNC(=O)C(=O)Nc2ccc([N+](=O)[O-])cc2[N+](=O)[O-])s1`, the TGI in the assay with A549 NSCLC is above 100 µM; in the assay with CCRF-CEM leukemia, 79.6 µM; with HOP-62 NSCLC, above 100 µM; in the assay on HT29 colon it was above 100 µM; with K-562 leukemia, above 100 µM; in the assay with SK-MEL-5 melanoma it was above 100 µM. Besides, the TGI with SNB-75 CNS, in the assay on SR leukemia, in the assay on SW-620 colon and with TK-10 renal was above 100 µM each time.
Regarding `COC(=O)C(Cc1cn(C(C)n2cc(CC(NC(C)=O)C(=O)OC)c3ccccc32)c2ccccc12)NC(C)=O` (stereo unspecified), the TGI in the assay on A549 NSCLC was above 100 µM; in the assay with CCRF-CEM leukemia, above 100 µM; with HOP-62 NSCLC it was above 100 µM; with HT29 colon, above 100 µM; in the assay with SK-MEL-5 melanoma it was above 100 µM; in the assay on SNB-75 CNS, 83.3 µM. In addition, the TGI in the assay on SR leukemia, with SW-620 colon and in the assay with TK-10 renal was above 100 µM in each case.
Take `CO/N=C1\CC(NC(=O)C(F)(F)F)c2ccsc21` (stereo unspecified): the TGI in the assay with A549 NSCLC, with CCRF-CEM leukemia, in the assay with HOP-62 NSCLC, in the assay on HT29 colon, in the assay with K-562 leukemia and in the assay on SK-MEL-5 melanoma was above 100 µM in each case. In addition, the TGI in the assay on SNB-75 CNS, with SR leukemia, in the assay on SW-620 colon and in the assay on TK-10 renal was above 100 µM throughout.
As to `COC(=O)CC(=O)OSc1ccccc1`, the TGI with A549 NSCLC was 77.3 µM; with CCRF-CEM leukemia it was above 100 µM; in the assay with HOP-62 NSCLC, 53.4 µM; in the assay with K-562 leukemia it was above 100 µM; with SK-MEL-5 melanoma, 87.9 µM; with SR leukemia, 42 µM. Moreover, the TGI in the assay with SW-620 colon was 38.4 µM; with TK-10 renal, above 100 µM.
For the compound `O=c1oc2ccccc2c(O)c1Cc1ccc(Cc2c(O)c3ccccc3oc2=O)cc1`, the concentration for total growth inhibition (TGI) with A549 NSCLC, in the assay on CCRF-CEM leukemia, in the assay with HOP-62 NSCLC, with HT29 colon, in the assay with K-562 leukemia and in the assay with SK-MEL-5 melanoma was above 100 µM in each case. In addition, the TGI with SNB-75 CNS, with SR leukemia, in the assay with SW-620 colon and in the assay with TK-10 renal was above 100 µM throughout.
